Reference: patent US10364256B2 (GlaxoSmithKline Intellectual Property Development Limited, priority 2015, dated 2019)

Assays:
[1] = target: T1, Keap1 Kelch domain (321-609) / TAMRA-labeled 16mer NRF2 peptide (ETGE motif) (Homo sapiens, UniProt Q14145); assay: NRF2-Keap1 FP Assay (Keap1 Kelch fluorescence polarization); assay type: binding; conditions: 20 nM Keap1 (321-609), 8 nM Tamra labeled peptide
T1 construct: the Kelch domain (321-609) of Keap1 is used
In short: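 Compound dilutions (3-fold) were incubated 1 hr at room temperature with 20 nM Keap1 Kelch (321-609) and 8 nM TAMRA-labeled ETGE 16mer peptide. Buffer was 50 mM Tris pH 8.0, 100 mM NaCl, 5 mM MgCl2, 1 mM DTT, 2 mM CHAPS, 0.005% BSA. Fluorescence polarization (mP) was normalized to controls and fitted with a four-parameter equation to give pIC50.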

[2] = target: T2, full length Keap1 protein / full length NRF2 protein (Homo sapiens, UniProt Q14145); assay: NRF2-Keap1 TR-FRET Assay; assay type: binding; conditions: 25 nM Keap1-FlagHis and 50 nM biotin-NRF2 added
T2 construct: full length NRF2 protein and full length Keap1 protein (Keap1 exists a dimer) are used; His
In short: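 Full-length Keap1-FlagHis preincubated with compound 2.25 h at 37 °C, then biotin-NRF2 added for 1.25 h at 4 °C, in Tris pH 8.0 with MgCl2, NaCl, BSA, DTT, CHAPS. TR-FRET 665/615 nm ratio normalised to with- and without-protein 1% DMSO controls; pIC50 from four-parameter fit.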

T2 sequence (Q14145 whole entry): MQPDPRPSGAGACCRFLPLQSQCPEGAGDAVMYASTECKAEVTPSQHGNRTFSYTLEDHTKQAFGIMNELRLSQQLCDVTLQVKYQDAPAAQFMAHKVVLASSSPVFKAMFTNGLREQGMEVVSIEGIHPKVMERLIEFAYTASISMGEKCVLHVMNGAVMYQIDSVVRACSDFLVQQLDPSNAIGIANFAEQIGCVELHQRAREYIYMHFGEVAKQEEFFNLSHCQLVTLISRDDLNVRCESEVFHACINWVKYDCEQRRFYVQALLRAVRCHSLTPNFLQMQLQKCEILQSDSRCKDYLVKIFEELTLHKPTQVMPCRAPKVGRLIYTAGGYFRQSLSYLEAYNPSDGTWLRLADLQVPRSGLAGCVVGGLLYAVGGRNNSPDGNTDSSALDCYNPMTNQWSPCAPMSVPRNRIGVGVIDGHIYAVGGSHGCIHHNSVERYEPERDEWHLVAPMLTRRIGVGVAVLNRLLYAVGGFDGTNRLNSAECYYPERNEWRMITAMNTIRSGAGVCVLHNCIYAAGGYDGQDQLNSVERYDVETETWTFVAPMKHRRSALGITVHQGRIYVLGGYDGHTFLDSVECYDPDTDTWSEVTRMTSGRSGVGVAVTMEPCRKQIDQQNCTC
T1 sequence (Q14145 321-609): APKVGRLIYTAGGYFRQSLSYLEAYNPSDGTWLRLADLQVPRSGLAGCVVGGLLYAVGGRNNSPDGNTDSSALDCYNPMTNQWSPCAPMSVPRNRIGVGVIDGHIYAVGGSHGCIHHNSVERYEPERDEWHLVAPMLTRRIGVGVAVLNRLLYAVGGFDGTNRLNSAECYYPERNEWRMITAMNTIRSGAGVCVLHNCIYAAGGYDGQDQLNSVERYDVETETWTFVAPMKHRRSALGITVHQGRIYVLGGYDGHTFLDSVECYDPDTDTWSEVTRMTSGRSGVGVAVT

IC50 [1] [nM] | IC50 [2] [nM] | Structure (SMILES)
10 to 100 | 100 to 1000 | CC(Oc1cccc(-c2cccc(-n3ncc(C(=O)O)c3C3CC3c3cn(C)nn3)c2)c1)C1CCCC1 (stereo not drawn) [Example 228, 1-(3′-(1-Cyclopentylethoxy)-[1,1′-biphenyl]-3-yl)-5-(2-(1-methyl-1H-1,2,3-triazol-4-yl)cyclopropyl)-1H-pyrazole-4-carboxylic acid]
10 to 100 | 100 to 1000 | Cn1cc(C2CC2c2c(C(=O)O)cnn2-c2cccc(-c3cccc(OC4CCCCC4)c3)c2)nn1 (stereo not drawn) [Example 229]
10 to 100 | 100 to 1000 | CC(Oc1cccc(-c2cccc(-n3ncc(C(=O)O)c3C3CC3c3cn(C)nn3)c2)c1)C1CC1 (stereo not drawn) [Example 231, 1-(3′-(1-Cyclopropylethoxy)-[1,1′-biphenyl]-3-yl)-5-(2-(1-methyl-1H-1,2,3-triazol-4-yl)cyclopropyl)-1H-pyrazole-4-carboxylic acid]
10 to 100 | 100 to 1000 | COC(c1cccc(-c2cccc(-n3ncc(C(=O)O)c3C3CC3c3cn(C)nn3)c2)c1)C1CCCCC1 (stereo not drawn) [Example 244, 1-(3′-(Cyclohexyl(methoxy)methyl)-[1,1′-biphenyl]-3-yl)-5-(2-(1-methyl-1H-1,2,3-triazol-4-yl)cyclopropyl)-1H-pyrazole-4-carboxylic acid]

Further lines, the molecule ahead of its results:

Structure (SMILES) | IC50 [1] [nM] | IC50 [2] [nM]
Cn1cc(C2CC2c2c(C(=O)O)cnn2-c2cccc(-c3cccc(OC4CCCN(C(=O)OC(C)(C)C)C4)c3)c2)nn1 (stereo not drawn) [Example 232, 1-(3′-((1-(tert-Butoxycarbonyl)piperidin-3-yl)oxy)-[1,1′-biphenyl]-3-yl)-5-(2-(1-methyl-1H-1,2,3-triazol-4-yl)cyclopropyl)-1H-pyrazole-4-carboxylic acid] | 100 to 1000 | 10 to 100
Cn1cc(C2CC2c2c(C(=O)O)cnn2-c2cccc(-c3cccc(CCC4CCCCC4)c3)c2)nn1 (stereo not drawn) [Example 233, 1-(3′-(2-Cyclohexylethyl)-[1,1′-biphenyl]-3-yl)-5-(2-(1-methyl-1H-1,2,3-triazol-4-yl)cyclopropyl)-1H-pyrazole-4-carboxylic Acid] | 100 to 1000 | 100 to 1000
Cn1cc(C2CC2c2c(C(=O)O)cnn2-c2cccc(-c3cccc(OC4CCOCC4)c3F)c2)nn1 (stereo not drawn) [Example 234, 1-(2′-Fluoro-3′-((tetrahydro-2H-pyran-4-yl)oxy)-[1,1′-biphenyl]-3-yl)-5-(2-(1-methyl-1H-1,2,3-triazol-4-yl)cyclopropyl)-1H-pyrazole-4-carboxylic Acid] | 10 to 100 | 100 to 1000
CC(Oc1cccc(-c2cccc(-n3ncc(C(=O)O)c3C3CC3c3cn(C)nn3)c2)c1)c1ccccc1 (stereo not drawn) [Example 235, 5-(2-(1-Methyl-1H-1,2,3-triazol-4-yl)cyclopropyl)-1-(3′-(1-phenylethoxy)-[1,1′-biphenyl]-3-yl)-1H-pyrazole-4-carboxylic Acid] | 10 to 100 | 100 to 1000
Cn1cc(C2CC2c2c(C(=O)O)cnn2-c2cccc(-c3cccc(C(=O)C4CCCCC4)c3)c2)nn1 (stereo not drawn) [Example 243, 1-(3′-(Cyclohexanecarbonyl)-[1,1′-biphenyl]-3-yl)-5-(2-(1-methyl-1H-1,2,3-triazol-4-yl)cyclopropyl)-1H-pyrazole-4-carboxylic Acid] | 10 to 100 | 100 to 1000
